# Where two headings read alike, the source gives them in different places.
# Legend:
# [1] = tested on: OATP1A2; settings: in vitro; cited from earlier work
# [2] = tested on: OATP2B1; settings: in vitro; cited from earlier work
# [3] = tested on: OATP1B1; settings: in vitro; cited from earlier work
# [4] = cited from earlier work
# [5] = format: in vivo, human; settings: for A e, amount excreted unchanged into urine over 24 hours / CL renal / AUC(0-t) / AUC(0-inf): geometric mean; for CL renal: plasma and urine, CLrenal; for AUC(0-inf): AUC0–∞
# [6] = Acute hemodynamic response to lisinopril; format: in vivo, human
# [7] = tested on: PEPT1; settings: Caco-2 cells; cited from earlier work
# [8] = stated as similar for lisinopril and nadolol
compound,measurement,setting,value
"O=C(O[C@@H]1Cc2c(O)cc(O)cc2O[C@@H]1c1cc(O)c(O)c(O)c1)c1cc(O)c(O)c(O)c1 [EGCG, (–)‐epigallocatechin gallate]",inhibition of OATP1A2 activity,[1],have been shown to inhibit
same,inhibition of OATP2B1 activity,[2],have been shown to inhibit
same,inhibition of OATP1B1 activity,[3],have been shown to inhibit
NCCCC[C@H](N[C@@H](CCc1ccccc1)C(=O)O)C(=O)N1CCC[C@H]1C(=O)O [lisinopril],oral bioavailability,[4],29%
same,oral bioavailability,[4]; [8],ca. 30%
same,decrease in AUC0-24 in the GTE phase compared with control phase,"[5]; GTE vs control, P < 0.001",69%
same,decrease in AUC0–∞ in the GTE phase compared with control phase,"[5]; GTE vs control, P < 0.001",67%
same,decrease in C max in the GTE phase compared with control phase,"[5]; GTE vs control, P < 0.001",71%
same,"A e, amount excreted unchanged into urine over 24 hours",[5]; GTE,0.54 mg
same,CL renal,"[5]; both, human, po, 10 mg, GTE",56.9 mL/min
same,CL renal,"[5]; both, human, po, 10 mg, control (water)",57.7 mL/min
same,Tmax,"[5]; both, human, plasma, po, 10 mg",6 h
same,AUC(0-t),"[5]; both, human, plasma, po, 10 mg, AUC0–24, GTE",157 ng·h/mL
same,AUC(0-t),"[5]; both, human, plasma, po, 10 mg, AUC0–24, control (water)",504 ng·h/mL
same,AUC(0-inf),"[5]; both, human, plasma, po, 10 mg, GTE",186 ng·h/mL
same,AUC(0-inf),"[5]; both, human, plasma, po, 10 mg, control (water)",554 ng·h/mL
same,"A e, amount excreted unchanged into urine over 24 hours",[5]; control (water),1.75 mg
same,A e GMR (GTE/control),[5]; geometric mean ratio GTE/control,0.307
same,adverse events,"[5]; ten subjects who completed the study, both phases",no adverse events
same,DBP,"[6]; GTE phase, 6 hours after 10 mg oral lisinopril, mean ± SD, baseline 68 ± 10 mmHg",55 ± 4 mmHg
same,mean maximum decrease of DBP from baseline,"[6]; both phases, at 6 hours after the administration",about 20%
same,"SBP and PR, control vs GTE phases",[6]; single oral dose 10 mg lisinopril,no differences
CC(C)(C)NCC(O)COc1cccc2c1CC(O)C(O)C2 (stereo not drawn) [nadolol],oral bioavailability,[4]; [8],ca. 30%
(–)‐epicatechin gallate,"inhibition of uptake transport of glycyl-sarcosine, a typical substrate of PEPT1",[7],not inhibiting
same,inhibition of OATP1A2 activity,[1],have been shown to inhibit
same,inhibition of OATP2B1 activity,[2],have been shown to inhibit
same,inhibition of OATP1B1 activity,[3],have been shown to inhibit

# Source: publication PMC7993260 (Clinical and Translational Science, 2020)
